In BindingDB's records for doi:10.1021/jm051056c (Targegen, 2007):

Molecular target: Phosphatidylinositol 4,5-bisphosphate 3-kinase catalytic subunit gamma isoform (Homo sapiens, UniProt P48736)
Experiment: Determination of PI3K Activity
Conditions: pH 7.4; 22 °C

Sequence of Phosphatidylinositol 4,5-bisphosphate 3-kinase catalytic subunit gamma isoform (P48736 whole entry, canonical isoform): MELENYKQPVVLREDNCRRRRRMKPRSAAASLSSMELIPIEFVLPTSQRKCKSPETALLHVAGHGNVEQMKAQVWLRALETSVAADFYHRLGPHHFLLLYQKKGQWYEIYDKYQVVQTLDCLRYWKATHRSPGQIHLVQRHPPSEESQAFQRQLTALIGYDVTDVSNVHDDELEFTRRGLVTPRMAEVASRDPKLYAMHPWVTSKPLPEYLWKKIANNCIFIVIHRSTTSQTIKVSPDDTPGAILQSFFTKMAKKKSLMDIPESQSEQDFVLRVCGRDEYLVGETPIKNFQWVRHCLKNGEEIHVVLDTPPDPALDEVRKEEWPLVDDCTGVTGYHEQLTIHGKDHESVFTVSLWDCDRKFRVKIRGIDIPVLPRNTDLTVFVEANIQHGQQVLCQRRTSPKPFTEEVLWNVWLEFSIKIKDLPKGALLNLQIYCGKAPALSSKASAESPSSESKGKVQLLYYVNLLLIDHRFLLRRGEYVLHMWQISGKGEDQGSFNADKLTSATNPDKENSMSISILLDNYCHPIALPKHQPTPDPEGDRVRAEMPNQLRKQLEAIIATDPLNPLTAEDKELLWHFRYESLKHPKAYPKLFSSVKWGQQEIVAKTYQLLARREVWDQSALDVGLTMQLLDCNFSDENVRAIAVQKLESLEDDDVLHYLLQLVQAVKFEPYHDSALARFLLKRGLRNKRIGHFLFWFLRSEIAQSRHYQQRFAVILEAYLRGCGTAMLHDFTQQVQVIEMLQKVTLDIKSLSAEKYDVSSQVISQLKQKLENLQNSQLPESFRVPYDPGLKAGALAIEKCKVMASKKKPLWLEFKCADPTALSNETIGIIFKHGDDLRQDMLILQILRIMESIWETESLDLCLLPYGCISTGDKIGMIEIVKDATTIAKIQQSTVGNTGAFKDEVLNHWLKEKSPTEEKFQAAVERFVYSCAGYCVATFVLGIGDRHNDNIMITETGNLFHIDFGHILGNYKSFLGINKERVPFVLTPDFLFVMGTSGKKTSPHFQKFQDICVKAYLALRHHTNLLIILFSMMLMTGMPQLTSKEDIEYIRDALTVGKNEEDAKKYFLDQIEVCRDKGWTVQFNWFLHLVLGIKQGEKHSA

- IC50: 12.6 µM
Structure (SMILES): COc1cccc(-c2nc3nc(N)nc(N)c3nc2-c2cccc(OC)c2)c1 [6,7-bis(3-methoxyphenyl)pteridine-2,4-diamine]
